The test system of data set [1] is Candida albicans biofilms on the maturation phase. The experiment in a line: Anti-maturation test (XTT), compounds added after 2 h adherence. It is filed as cell-based, Candida albicans ATCC 28367. The settings on record: for IC50: Candida albicans, read-out: Anti-maturation activity MMIC50. The method, then:
(§1) The anti-maturation and/or anti-biofilm activities of lichen compounds were assessed as previously described ([Millot et al., 2017]). Briefly, C. albicans (ATCC® 28367™) cultures were prepared at a final concentration of 1 × 10^7 cells/ml in yeast nitrogen base medium (Difco, Detroit, MI), supplemented with 50 mM glucose (Sigma, St Louis, MO) (YNB-Glc) from a preculture incubated overnight at 37°C without shaking.
(§2) A total of 200 µl of yeast culture was added to each well of untreated 96-well tissue culture plates. The plates were then incubated at 37°C for 2 h for the anti-maturation test and for 24 h for the anti-biofilm test. After aspiration of spent media and free-floating microorganisms, 250 μl per well of YNB-Glucose and 50 μl lichen compound samples obtained by serial twofold dilutions of each stock solution over the final range 200 to 0.097 μg/ml or 200 to 6.25 μg/ml were added to wells. Controls were also present: untreated yeasts (negative control) and yeasts treated with 2% DMSO. After 24 and/or 48 h of incubation at 37°C followed by aspiration of spent media and free-floating microorganisms, the wells were washed with phosphate-buffered saline (PBS) and observed under an inverted optical microscope (IX51® inverted microscope, Olympus). Biofilms were quantified using a metabolic assay based on the reduction of a tetrazolium salt (XTT) and absorbance measurements at 492 nm (microplate reader LP400; Sanofi Diagnostics Pasteur) ([Cocuaud, 2005]; [Dalleau et al., 2008]). The percent inhibition was determined from the absorbance values compared to the mean absorbance value obtained for untreated wells (100%).
(§3) Concentrations of lichen products inhibiting 50% of biofilms were determined for each tested sample by constructing a dose–response curve and selecting the closest tested concentration value above or equal to 50% inhibition. All anti-maturation and anti-biofilm tests were performed at least in triplicate in at least two separate experiments. The lichen compounds with MMIC50 or/and MBIC50 less than 100 μg/ml were considered as potentially useful.
(§4) Anti-maturation and anti-biofilm tests were performed with C. albicans ATCC® 28367™, as previously described, in 96-well microplates with evernic acid alone, cyclodextrin alone, and evernic acid included in cyclodextrin at over 50 to 1.5 µM final range of evernic acid (serial twofold dilution).
In general terms: Formazan colour is commonly taken as a measure of viable cells.

The subject of data set [2] is Candida albicans preformed 24-h-old biofilm. The experiment in a line: Anti-biofilm test (XTT) on preformed 24-h-old biofilm. Type of data set: cell-based, Candida albicans ATCC 28367. On the procedure:
as §1, §2, §3, §4

Data set [3] relates to C. albicans planktonic yeast. The experiment in a line: Minimal inhibitory concentration, broth microdilution (CLSI M27-A3 adapted). It is filed as cell-based, Candida albicans ATCC 28367. On the procedure: Stock solutions of lichen compounds were prepared in DMSO at 10 mg/ml and were used for all the experiments performed. Their antifungal minimum inhibitory concentrations (MICs) were determined by a broth microdilution method (CLSI reference M27-A3 micromethod adapted protocol) as previously described ([Millot et al., 2017]). Briefly, an inoculum of C. albicans ATCC® 28367™ (American Type Culture Collection) adjusted to 0.5 Mac Farland absorbance was diluted 1:1,000 in RPMI-MOPS. A volume of this yeast culture was added to an equivalent volume of compound solution at several concentrations (100 to 0.048 μg/ml final) in 96-well microtiter plates. Controls as untreated yeasts (negative control), yeasts treated with 2% DMSO and yeasts treated with fluconazole (positive control) were included. After 24 and 48 h incubation at 37°C without shaking, the MICs were determined. All tests were performed in duplicate in at least two separate experiments.
A general note: Broth dilution looks for growth in wells or tubes with falling amounts of substance.

Data set [4] relates to C. albicans (ATCC: 90028) biofilm. More on the design: method as in Nithyanand et al., 2015b. To be noted: at 100 µg/ml, added before the adhesion step, ring test; ref Nithyanand et al., 2015b; cited from earlier work.
Data set [5] deals with 48-h C. albicans biofilm. The arrangement: method as in Peralta et al., 2016. The settings on record: 4 μg/ml, ref Peralta et al., 2016, cited from earlier work.
Data set [6] relates to Candida krusei biofilm. More on the design: method as in Kvasnickova et al., 2015. The settings on record: at 300 μg/ml, 24-h biofilm; ref Kvasnickova et al., 2015; cited from earlier work.
Data set [7] has as its system Candida parapsilosis biofilm. The arrangement: method as in Kvasnickova et al., 2015. The settings on record: at 300 μg/ml, 24-h biofilm; ref Kvasnickova et al., 2015; cited from earlier work.
In data set [8] the test system is 24-h Candida orthopsilosis biofilms. The arrangement: method as in Pires et al., 2012. To be noted: 24-h biofilm, vs untreated controls; ref Pires et al., 2012; cited from earlier work.
In data set [9] the test system is 24-h C. parapsilosis biofilms. More on the design: method as in Pires et al., 2012. To be noted: 24-h biofilm, vs untreated controls; ref Pires et al., 2012; cited from earlier work.
The test system of data set [10] is C. albicans. More on the design: method as in Nithyanand et al., 2015b. To be noted: at 100 µg/ml; ref Nithyanand et al., 2015b; cited from earlier work.
Data set [11] concerns red blood cells. The experiment in a line: Hemolysis test. Type of data set: cell-based. To be noted: at 100 µg/ml, 1 h. The method, then: Then, 480 µl of each dilution was added to 20 µl of healthy red blood cells (Poitiers University Hospital, Hematology Department) in microtubes (final hematocrit = 4%). Some microtubes were reserved for controls: untreated red blood cells (negative control), cells treated with sterile distilled water (positive control = 100% hemolysis), and cells treated with 1% DMSO. After 1 h of incubation at 37°C, the tubes were centrifuged for 10 s at 14,000 g (A14 centrifuge Jouan) twice, and 200 µl of each supernatant was transferred into 96-well microtiter plates for colorimetric measurements at 450 nm (microplate reader LP400; Sanofi Diagnostics Pasteur) in order to determine the hemolysis percentages of each compound ([Evans et al., 2013]). All tests were performed in duplicate (at least two separate experiments).

Data set [12] deals with HeLa human epithelial cervix cells. The experiment in a line: Growth inhibition of HeLa cells (MTT, 72 h). It is filed as cell-based. The settings on record: for Growth inhibition of HeLa cells (% inhibition): 72 h. The method, then:
HeLa human epithelial cervix cells were grown as monolayers at 37°C in a 5% CO2–95% air humidified atmosphere in RPMI supplemented with 10% FBS and […] gentamycin and streptomycin. Cells (2,000 cells/well) were seeded into each well of 96-well plates. […] The final DMSO concentration was less than 1% and tested as a negative control. Cell viability at 72 h was studied using the MTT assay. Then, 5 µl of MTT (10 mg/ml) was added to each well, and the plates were incubated for 4 h. The medium was then removed by aspiration, and 200 µl DMSO was added to each well. Proliferation was determined spectrophotometrically by measuring the absorbance at 540 nm. The percent of growth inhibition (%GI) was calculated as follows: %GI = [(DO (ʎ540 nm) control - DO (ʎ540 nm) treated)/DO (ʎ540 nm) control] * 100. All experiments were performed in duplicate with at least two replicate experiments.

Details of data set [13]: method as in Shcherbakova et al. (2021). The settings on record: ref Shcherbakova et al. (2021); cited from earlier work.

pIC50: −log10 of the molar value. ≈ marks a conversion by molar mass, not a printed value. Where “and” joins values, the source holds several entries; their conditions need not be identical. Identical values can stand only once. Like-named read-outs stand apart in the source and are kept apart here.

What is called MIC is the lowest concentration found to suppress growth. Take `CC(=O)C1=C(O)C=C2Oc3c(C(C)=O)c(O)c(C)c(O)c3C2(C)C1=O` (stereo in doubt) [Compound 11, (+)-usnic acid]: the IC50 in [1] (24 h) was above 200 µg/mL; in data set [1] (48 h), above 200 µg/mL; in [2] (Candida albicans, 24 h, read-out: Anti-biofilm activity MBIC50), above 200 µg/mL; in data set [2] (Candida albicans, 48 h, read-out: Anti-biofilm activity MBIC50), above 200 µg/mL; in [2] (Candida albicans, read-out: MBIC50), at least 100 µg/mL. Also, the Anti-maturation activity entry in data set [1] (at 200 µg/ml) was “not active”. The Anti-biofilm activity entry in [2] (24-h-old biofilm, in words) is recorded as “no anti-biofilm activity”. Besides, in data set [3], the MIC was above 100 µg/mL. In data set [4], the Biofilm inhibition is recorded as 65%. Also, the Biofilm biomass in data set [5] (control 18.39) is 4.91 μm^3/μm^2. Besides, the “Inhibition of biofilm biomass” value in [5] is on record as 73.3%. Besides, in data set [5], the “Reduction of biofilm thickness” value is on record as 76.8%. In addition, the Anti-biofilm properties entry in data set [6] and in data set [7] was “no anti-biofilm properties” throughout. Moreover, the “Concentration inducing 80% inhibition of cell growth” value in data set [8] was 31.2 µg/mL; in data set [9], 62.5 µg/mL. Besides, in data set [10], the Antifungal activity entry is “no antifungal activity”.
Take `COc1cc(C)c(C(=O)Oc2cc(C)c(C(=O)O)c(O)c2)c(O)c1` [Compound 1, Evernic acid]: the IC50 in data set [1] (24 h of treatment) was 100 µg/mL (≈ 301 µM); in [1] (48 h of treatment) it was 6.25 µg/mL and 18 µM; in data set [2] (Candida albicans, 24 h, 24 h of treatment, 24-h-old biofilm, read-out: Anti-biofilm activity MBIC50), 200 µg/mL; in data set [2] (Candida albicans, 48 h, 48 h of treatment, 24-h-old biofilm, read-out: Anti-biofilm activity MBIC50) it was at most 12.5 µg/mL. Further, the “Anti-biofilm activity MBIC50” value in [2] (48 h of treatment, 24-h-old biofilm) is 12.5 µg/mL. Further, the pIC50 in data set [2] (48 h of treatment, 24-h-old biofilm, listed as Evernic acid, read-out: Anti-biofilm activity MBIC50) was above 4.90; in data set [2] (48 h of treatment, 24-h-old biofilm, listed as evernic acid, read-out: Anti-biofilm activity MBIC50) it was 4.43; in [2] (48 h of treatment, 24-h-old biofilm, read-out: Anti-biofilm activity MBIC50), 4.43; in [2] (Candida albicans, 48 h, cyclodextrin experiment, 1.5 to 50 µM, 48 h of contact, read-out: Concentration giving 50% inhibition of the biofilm) it was 4.90. The “Hemolytic activity (%)” value in data set [11] is given as 0%; in data set [11] (listed as Evernic acid) it was “no hemolytic activity”; in [11] (listed as evernic acid), “no effect at all”. In addition, the “Growth inhibition of HeLa cells (% inhibition)” value in data set [12] (at 6.125 µg/ml) is 22.2 ± 2.8%; in [12] (at 100 µg/ml), “more than 70%”. Also, the “Inhibition of HeLa cell growth” value in data set [12] (at the lowest tested / minimal active concentration (12.5 or 6.25 µg/ml)) is given as 22%. For the same compound, the Predicted cytotoxicity risks entry in data set [13] is “absence of mutagenic, tumorigenic, reproductive, and irritant effects”.

(Values after PMC8481799, “Lichen Polyphenolic Compounds for the Eradication of Candida albicans Biofilms” (Frontiers in Cellular and Infection Microbiology, 2021).)
